For data set [1], the target named is T1, CCA1 (Dictyostelium discoideum, UniProt Q54BQ2).
T1 construct: gene DDB_G0293504; full-length codon-optimized ORF, C-terminal His tag, pET28b(+), E. coli BL21(DE3) delta-cca
T1 sequence (Q54BQ2 1-558): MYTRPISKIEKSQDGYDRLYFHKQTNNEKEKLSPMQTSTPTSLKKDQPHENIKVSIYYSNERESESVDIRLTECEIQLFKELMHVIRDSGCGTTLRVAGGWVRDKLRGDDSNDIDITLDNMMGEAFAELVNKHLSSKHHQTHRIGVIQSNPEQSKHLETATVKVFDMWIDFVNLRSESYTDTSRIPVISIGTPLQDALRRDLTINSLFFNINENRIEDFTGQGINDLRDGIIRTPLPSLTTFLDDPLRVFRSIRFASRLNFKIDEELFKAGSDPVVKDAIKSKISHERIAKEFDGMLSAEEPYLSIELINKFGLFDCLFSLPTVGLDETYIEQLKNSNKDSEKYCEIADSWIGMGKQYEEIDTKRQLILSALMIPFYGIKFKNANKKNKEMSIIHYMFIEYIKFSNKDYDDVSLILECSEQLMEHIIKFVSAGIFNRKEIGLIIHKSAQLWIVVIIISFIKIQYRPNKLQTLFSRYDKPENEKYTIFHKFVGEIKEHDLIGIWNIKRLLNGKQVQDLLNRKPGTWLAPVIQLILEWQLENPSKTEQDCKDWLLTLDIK
Put plainly: nucleotide binding assay (supplement).

The target in data set [2] is T2, CCA2 (Dictyostelium discoideum, UniProt Q55BE1).
T2 construct: gene DDB_G0271378; full-length codon-optimized ORF, C-terminal His tag, pET28b(+), E. coli BL21(DE3) delta-cca; Q/N-rich
T2 sequence (Q55BE1 1-542): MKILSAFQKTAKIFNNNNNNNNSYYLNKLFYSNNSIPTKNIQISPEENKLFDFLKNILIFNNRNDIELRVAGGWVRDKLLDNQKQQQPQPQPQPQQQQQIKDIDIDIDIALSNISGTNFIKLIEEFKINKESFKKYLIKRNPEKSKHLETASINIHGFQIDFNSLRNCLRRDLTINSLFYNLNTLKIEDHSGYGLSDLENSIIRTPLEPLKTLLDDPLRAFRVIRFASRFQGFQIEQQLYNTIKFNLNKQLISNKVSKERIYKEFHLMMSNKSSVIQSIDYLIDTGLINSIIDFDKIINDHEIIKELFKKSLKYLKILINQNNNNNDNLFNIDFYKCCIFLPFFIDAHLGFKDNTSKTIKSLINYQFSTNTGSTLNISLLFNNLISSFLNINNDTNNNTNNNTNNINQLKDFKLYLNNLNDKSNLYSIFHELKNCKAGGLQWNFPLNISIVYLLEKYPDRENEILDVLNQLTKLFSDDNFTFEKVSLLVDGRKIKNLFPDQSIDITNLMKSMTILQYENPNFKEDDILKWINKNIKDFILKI
Put plainly: nucleotide binding assay (supplement).

For data set [3], the system named is T3, CCA2 (tRNA nucleotidyltransferase 2, Q/N-rich) (Dictyostelium discoideum).
T3 sequence: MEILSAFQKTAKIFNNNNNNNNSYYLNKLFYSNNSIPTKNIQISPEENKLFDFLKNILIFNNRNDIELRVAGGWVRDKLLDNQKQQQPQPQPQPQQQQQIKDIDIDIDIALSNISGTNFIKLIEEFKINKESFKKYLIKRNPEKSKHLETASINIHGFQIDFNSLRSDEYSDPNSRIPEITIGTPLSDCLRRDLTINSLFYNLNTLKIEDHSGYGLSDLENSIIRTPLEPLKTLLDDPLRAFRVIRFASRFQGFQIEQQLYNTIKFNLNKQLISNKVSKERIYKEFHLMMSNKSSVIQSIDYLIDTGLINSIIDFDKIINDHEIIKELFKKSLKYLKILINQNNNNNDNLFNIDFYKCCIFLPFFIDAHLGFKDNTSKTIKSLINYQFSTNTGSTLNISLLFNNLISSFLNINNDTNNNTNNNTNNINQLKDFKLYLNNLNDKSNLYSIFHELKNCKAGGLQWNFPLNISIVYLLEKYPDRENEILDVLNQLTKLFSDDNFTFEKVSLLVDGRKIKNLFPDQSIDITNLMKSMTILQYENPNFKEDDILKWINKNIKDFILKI
Put plainly: EMSA. The conditions noted are these: 6 mM Mg2+, EMSA: HEPES/KOH pH 7.6 (concentration not stated), 30 mM KCl, 6 mM MgCl2, 20 C, 10 min, 0.5 pmol tRNA, 0-5 uM enzyme, 5% native PAA gel, n=3. In general terms: Mobility shift assays separate free from complexed probe on a gel.

Experimental findings from paper PMC7432833, “Unusual Occurrence of Two Bona-Fide CCA-Adding Enzymes in Dictyostelium discoideum” (International Journal of Molecular Sciences, 2020) are described below.

Regarding `Nc1ncnc2c1ncn2[C@@H]1O[C@H](COP(=O)(O)OP(=O)(O)OP(=O)(O)O)[C@@H](O)[C@H]1O` [ATP], the “nucleotide binding assay (supplement)” value is reported as “when incubated with CTP or ATP alone, both enzymes showed an almost identical binding behavior” in data set [1] and “when incubated with CTP or ATP alone, both enzymes showed an almost identical binding behavior” in data set [2].

In the case of `Nc1ccn([C@@H]2O[C@H](COP(=O)(O)OP(=O)(O)OP(=O)(O)O)[C@@H](O)[C@H]2O)c(=O)n1` [CTP], the “nucleotide binding assay (supplement)” value is on record as “when incubated with CTP or ATP alone, both enzymes showed an almost identical binding behavior” in data set [1] and “when incubated with CTP or ATP alone, both enzymes showed an almost identical binding behavior” in data set [2].

What is called Kd is the free concentration of one partner at which half of the binding sites on the other are occupied at equilibrium, for simple one-to-one binding. Low readings indicate higher affinity, high ones lower affinity. Regarding “tRNAPhe-CC in vitro transcript (yeast per Fig. 5 legend)”, in data set [3], the Kd stood at 2300 nM. Take total in vivo tRNA-CC pool: the Kd in data set [3] (tRNA pool, native tRNA modifications (isolated from cells)) was 1700 nM.
